Reference: patent publication US9708251B2, “Unsaturated fatty alcohol alkoxylates from natural oil metathesis” (Stepan Company, priority 2012, dated 2017)

Tests used:
Type in all cases: physicochemical
[1] = Emulsion stability testing of nonionic emulsifiers, aromatic solvent series; design: key to 24 h separation, appearance / 1 h separation, appearance / 1 h separation, amount: C = creamy; CO = creamy oil; O = oil; GC = gritty cream; NS = no separation; OC = oily cream; key to Spon. (spontaneity): G = good; F = fair; P = poor
Protocol: (§1) Nonionic samples contain a low amount of water (<1%) and are prepared as emulsifiable concentrates with three pesticides using two different solvent systems. In the aromatic solvent series, the nonionic sample replaces Toximul® 8240 (castor oil ethoxylate, 36 POE, Stepan), and in the Hallcomid™ (N,N-dimethylcaprylamide/N,N-dimethylcapramide, Stepan) solvent series, the nonionic sample replaces Ninex® MT-630F.
Sample preparation: Ninate® 60E (calcium alkylbenzenesulfonate, Stepan) and the test sample are stirred until homogeneous. […] Controls 1-3 are made by using Toximul 8240 in the amounts indicated instead of the nonionic sample.
Formulations: • 1. Bifenthrin, 240 g/L (2.99 g), Aromatic 100 (ExxonMobil, 8.05 g), Ninate 60E (0.38 g), and nonionic sample or Toximul 8240 (0.58 g). • 2. 2,4-D ester, 480 g/L (8.90 g), Exxsol® D-110 (ExxonMobil, 2.50 g), Ninate 60E (0.36 g), and nonionic sample or Toximul 8240 (0.24 g). • 3. Tebuconazole, 360 g/L (4.45 g), N-methyl-2-pyrrolidone (6.35 g), Ninate 60E (0.48 g), nonionic sample or Toximul 8240 (0.72 g).
(§2) Emulsion Stability Testing
(§3) A Mohr pipette is used to feed pesticide/surfactant concentrates to each cylinder.

[2] = Emulsion stability testing of nonionic emulsifiers, Hallcomid solvent series; design: key: C = creamy; CO = creamy oil; O = oil; GC = gritty cream; NS = no separation; OC = oily cream
Protocol: as §1
(§4) Hallcomid Solvent Series.
(§5) Sample preparation: The surfactants are combined and stirred until homogeneous, with the nonionic sample melted if needed prior to combination. Controls 1-3 are made by using Ninex MT-630F in the amounts indicated instead of the nonionic sample.
as §2, §3

[3] = as above; design: key to 24 h separation, appearance / 1 h separation, appearance / 1 h separation, amount: C = creamy; CO = creamy oil; O = oil; GC = gritty cream; NS = no separation; OC = oily cream; key to Spon. (spontaneity): G = good; F = fair; P = poor
Protocol: as §1, §4, §5, §2, §3

[4] = Surfactant phase behavior study (cross-polarized microscopy); conditions: room temperature
Protocol: Phase behavior is observed using an Olympus BH-2 cross-polarized microscope at 100-400× and room temperature (20° C. to 22° C.). The inventive monounsaturated alcohol ethoxylates are compared with their saturated analogs.
Samples are prepared by diluting the most concentrated product gradually with deionized water. When the surfactant concentration approaches a phase transition, the concentration is varied at 2-4% intervals to estimate the phase boundary. The actives level reported in Table 4 for each phase boundary is within ±5% of the true boundary.
Samples are loaded between a microscope slide and cover glass and are allowed to equilibrate before observation. Microscopic texture is analyzed and used to determine the phase. For some samples, an AR 2000 rheometer (TA Instruments) is used to measure viscosity at 25° C. to further verify phase behavior.

[5] = 2,4-D ester 480 g/L in Exxsol D-110, 34 ppm water
[6] = 2,4-D ester 480 g/L in Exxsol D-110, 1000 ppm water
[7] = Bifenthrin 240 g/L in Aromatic 100, 34 ppm water
[8] = Bifenthrin 240 g/L in Aromatic 100, 1000 ppm water
[9] = Tebuconazole 360 g/L in N-methyl-2-pyrrolidone, 34 ppm water
[10] = Tebuconazole 360 g/L in N-methyl-2-pyrrolidone, 1000 ppm water
[11] = Bifenthrin 240 g/L in Hallcomid M-8-10, 34 ppm water
[12] = Tebuconazole 360 g/L in Hallcomid M-8-10, 34 ppm water
[13] = 2,4-D diester 480 g/L in Hallcomid M-8-10, 34 ppm water
[14] = 2,4-D diester 480 g/L in Hallcomid M-8-10, 1000 ppm water
[15] = Bifenthrin 240 g/L in Hallcomid M-8-10, 1000 ppm water
[16] = Tebuconazole 360 g/L in Hallcomid M-8-10, 1000 ppm water

C=CCCCCCCCCOCCOCCOCCOCCOCCOCCOCCOCCOCCOCCOCCOCCOCCOCCOCCO [A10-16]
1 h separation, amount [1, 5]: 2.6 mL
1 h separation, appearance [1, 5]: C
24 h separation, amount [1, 5]: 5 mL
24 h separation, appearance [1, 5]: C
Spon. (spontaneity) [1, 5]: P
1 h separation, amount [1, 6]: 2.8 mL
1 h separation, appearance [1, 6]: C
24 h separation, amount [1, 6]: 3.9 mL
24 h separation, appearance [1, 6]: C
Spon. (spontaneity) [1, 6]: P
1 h separation, amount [1, 7]: 7 mL
1 h separation, appearance [1, 7]: C
24 h separation, amount [1, 7]: 7 mL
24 h separation, appearance [1, 7]: C
Spon. (spontaneity) [1, 7]: P
1 h separation, amount [1, 8]: 6 mL
1 h separation, appearance [1, 8]: C
24 h separation, amount [1, 8]: 4.8 mL
24 h separation, appearance [1, 8]: CO
Spon. (spontaneity) [1, 8]: P
1 h separation, amount [1, 9]: 1 mL
1 h separation, appearance [1, 9]: C
24 h separation, amount [1, 9]: 3.5 mL
24 h separation, appearance [1, 9]: CO
Spon. (spontaneity) [1, 9]: P
1 h separation, amount [1, 10]: 1.2 mL
1 h separation, appearance [1, 10]: C
24 h separation, amount [1, 10]: 2 mL
24 h separation, appearance [1, 10]: CO
Spon. (spontaneity) [1, 10]: P
24 h separation, amount [2, 11]: NS
24 h separation, amount [2, 12]: NS
1 h separation, amount [3, 13]: 4.4 mL
1 h separation, appearance [3, 13]: C
24 h separation, amount [3, 13]: 8.5 mL
24 h separation, appearance [3, 13]: C
Spon. (spontaneity) [3, 13]: P
1 h separation, amount [3, 14]: 4.8 mL
1 h separation, appearance [3, 14]: C
24 h separation, amount [3, 14]: 7.6 mL
24 h separation, appearance [3, 14]: C
Spon. (spontaneity) [3, 14]: P
1 h separation, amount [3, 11]: NS
Spon. (spontaneity) [3, 11]: G
1 h separation, amount [3, 15]: 5.5 mL
1 h separation, appearance [3, 15]: CO
24 h separation, amount [3, 15]: 5.4 mL
24 h separation, appearance [3, 15]: O
Spon. (spontaneity) [3, 15]: F
1 h separation, amount [3, 12]: 1 mL
1 h separation, appearance [3, 12]: C
Spon. (spontaneity) [3, 12]: F
1 h separation, amount [3, 16]: 2 mL
1 h separation, appearance [3, 16]: C
24 h separation, amount [3, 16]: 4.7 mL
24 h separation, appearance [3, 16]: C
Spon. (spontaneity) [3, 16]: F
Paste phase region ([4]; in deionized water): 93-100 % Actives Level

CCC=CCCCCCCCCOCCOCCOCCO (mixture of isomers) [A12-7]
1 h separation, amount [1, 5]: 3.2 mL
1 h separation, appearance [1, 5]: C
24 h separation, amount [1, 5]: 5.5 mL
24 h separation, appearance [1, 5]: C
Spon. (spontaneity) [1, 5]: P
1 h separation, amount [1, 6]: 4.2 mL
1 h separation, appearance [1, 6]: O
24 h separation, amount [1, 6]: 0.8 O, 3.3 CO
Spon. (spontaneity) [1, 6]: P
1 h separation, amount [1, 7]: 8.8 mL
1 h separation, appearance [1, 7]: C
24 h separation, amount [1, 7]: 6.8 mL
24 h separation, appearance [1, 7]: C
Spon. (spontaneity) [1, 7]: P
1 h separation, amount [1, 8]: 4.5 mL
1 h separation, appearance [1, 8]: O
24 h separation, amount [1, 8]: 4.9 mL
24 h separation, appearance [1, 8]: O
Spon. (spontaneity) [1, 8]: P
1 h separation, amount [1, 9]: 2.3 mL
1 h separation, appearance [1, 9]: C
24 h separation, amount [1, 9]: 3 mL
24 h separation, appearance [1, 9]: GC
Spon. (spontaneity) [1, 9]: P
1 h separation, amount [1, 10]: 2.6 mL
1 h separation, appearance [1, 10]: C
24 h separation, amount [1, 10]: 3.2 mL
24 h separation, appearance [1, 10]: GC
Spon. (spontaneity) [1, 10]: P
24 h separation, amount [2, 11]: NS
1 h separation, amount [3, 13]: 6 mL
1 h separation, appearance [3, 13]: C
24 h separation, amount [3, 13]: 10 mL
24 h separation, appearance [3, 13]: C
Spon. (spontaneity) [3, 13]: F
1 h separation, amount [3, 14]: 6.7 mL
1 h separation, appearance [3, 14]: C
24 h separation, amount [3, 14]: 8.2 mL
24 h separation, appearance [3, 14]: C
Spon. (spontaneity) [3, 14]: F
1 h separation, amount [3, 11]: NS
Spon. (spontaneity) [3, 11]: G
1 h separation, amount [3, 15]: 10.2 mL
1 h separation, appearance [3, 15]: C
24 h separation, amount [3, 15]: 2 O, 3.5 CO
Spon. (spontaneity) [3, 15]: F
1 h separation, amount [3, 12]: 2 mL
1 h separation, appearance [3, 12]: C
24 h separation, amount [3, 12]: 5.1 mL
24 h separation, appearance [3, 12]: C
Spon. (spontaneity) [3, 12]: F
1 h separation, amount [3, 16]: 2.7 mL
1 h separation, appearance [3, 16]: C
24 h separation, amount [3, 16]: 4.9 mL
24 h separation, appearance [3, 16]: C
Spon. (spontaneity) [3, 16]: F
combined isotropic phases (clear and opaque), share of the total [4]: about 66%
Isotropic Clear phase region ([4]; in deionized water): 74-100 % Actives Level
Isotropic Opaque phase region ([4]; in deionized water): 0-40 % Actives Level
Lamellar phase region ([4]; in deionized water): 40-74 % Actives Level
